Experimental data taken from patent US8486991B2, “Enantiomerically pure phosphoindoles as HIV inhibitors” (Idenix Pharmaceuticals, Inc., priority 2006, dated 2013).
Where “and” joins values, the source holds several entries; their conditions need not be identical. Equal values may be shown once. Read-outs that look alike come from different tables or passages of the source.

Columns and labels:
[1] = Longer term cytotoxicity, 12 days, MTS, HepG2; settings: human
Experimental: (§2) Cell viability was measured by standard MTT or MTS staining.
(§3) Cells were repeatedly treated with a range of drug concentrations (0.005 to 100 μM) for 9 (HeLa) or 12 days (HuH7, HepG2).

[2] = biological target: T1, human DNA polymerase gamma (Homo sapiens, UniProt P54098); assay: Human cellular DNA polymerase gamma assay; format: biochemical; settings: DNA Pol Gamma
T1 sequence (P54098 1-1239): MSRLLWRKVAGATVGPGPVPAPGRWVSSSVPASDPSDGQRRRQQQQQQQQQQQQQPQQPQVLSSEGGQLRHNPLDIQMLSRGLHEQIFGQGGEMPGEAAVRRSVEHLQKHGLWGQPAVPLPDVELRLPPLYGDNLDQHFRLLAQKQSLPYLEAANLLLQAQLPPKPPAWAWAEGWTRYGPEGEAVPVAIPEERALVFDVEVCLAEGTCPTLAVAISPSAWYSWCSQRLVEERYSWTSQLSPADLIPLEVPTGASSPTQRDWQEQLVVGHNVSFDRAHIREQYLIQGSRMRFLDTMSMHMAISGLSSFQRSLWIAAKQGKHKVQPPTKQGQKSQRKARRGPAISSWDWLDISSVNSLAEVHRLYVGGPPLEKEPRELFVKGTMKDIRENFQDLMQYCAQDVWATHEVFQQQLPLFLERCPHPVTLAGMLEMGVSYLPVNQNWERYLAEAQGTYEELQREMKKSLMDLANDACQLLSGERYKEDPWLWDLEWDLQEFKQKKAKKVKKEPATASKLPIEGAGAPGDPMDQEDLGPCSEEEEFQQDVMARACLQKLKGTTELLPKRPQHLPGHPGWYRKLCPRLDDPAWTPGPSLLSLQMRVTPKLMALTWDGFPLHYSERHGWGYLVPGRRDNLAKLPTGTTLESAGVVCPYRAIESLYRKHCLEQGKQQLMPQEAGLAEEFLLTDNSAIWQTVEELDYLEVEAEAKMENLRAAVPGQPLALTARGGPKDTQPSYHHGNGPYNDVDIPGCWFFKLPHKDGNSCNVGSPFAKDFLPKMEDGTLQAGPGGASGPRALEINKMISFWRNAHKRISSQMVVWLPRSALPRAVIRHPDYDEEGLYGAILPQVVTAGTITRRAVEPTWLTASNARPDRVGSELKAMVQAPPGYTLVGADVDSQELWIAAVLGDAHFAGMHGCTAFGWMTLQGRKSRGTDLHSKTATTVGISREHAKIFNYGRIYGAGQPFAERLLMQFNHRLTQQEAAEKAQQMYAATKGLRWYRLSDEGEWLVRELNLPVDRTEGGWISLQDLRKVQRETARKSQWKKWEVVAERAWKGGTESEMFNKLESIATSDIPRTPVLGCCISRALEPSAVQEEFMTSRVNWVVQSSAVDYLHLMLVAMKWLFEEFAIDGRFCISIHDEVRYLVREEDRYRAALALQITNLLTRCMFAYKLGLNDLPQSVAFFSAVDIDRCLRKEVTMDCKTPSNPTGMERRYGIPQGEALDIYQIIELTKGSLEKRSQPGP
Excerpt: (§1) HIV RT, like other viral polymerase, shares limited structural homology with the cellular DNA polymerases responsible for normal nuclear and mitochondrial DNA synthesis and repair. This raises the formal possibility that inhibitors of HIV RT might inhibit cellular polymerases, resulting in cellular toxicity. In particular, inhibition of polymerase gamma has the potential to result in mitochondrial toxicity. The ability of Compound I and Compound III to inhibit cellular DNA polymerases was assessed using standard in vitro assays (Table 5).

[3] = tested on: HIV-1 K103N clinical isolates 4937 and 5002; assay: microbe, parasite or virus in culture; format: cell-based; settings: Human immunodeficiency virus 1, PBMC, read-out: Average EC50 Values ± Standard Deviation, K103N
[4] = Longer term cytotoxicity, HeLa, HuH7 and HepG2 (ranges); settings: human, CC50 range, HuH7 and HepG2, 9-12 day testing
Experimental: as §2, §3

[5] = biological target: human DNA polymerase beta (Homo sapiens, UniProt P06746); assay: Human cellular DNA polymerase beta assay; format: biochemical; settings: for IC50: DNA Pol Beta
Excerpt: as §1

[6] = tested on: HIV-1 BH10 wild-type virus; assay: CPE / cell protection assay, MT-4 cells, BH10 wild-type; format: cell-based; settings: for EC50: Human immunodeficiency virus 1, MT4
Experimental: The activity of the compounds was also assessed with the same virus and cell type using a different assay readout based on cytopathic effect (CPE).
MT-4 cells (Source: NIH Catalog #120) were seeded onto 96-well cell culture plates (1×10^4 cells per well in 50 μL).
The final DMSO concentration in the assay was 0.5% in 120 μL. Cell cultures were then incubated at 37° C./5% CO2 for 4 days. Then, Cell Titer 96 AQueous One Solution Cell Proliferation Assay (Promega) was used to measure cell viability. Briefly, the One Solution Reagent was added directly to culture wells (20 μL/well), incubated for 5 hours, and the absorbance was recorded at 492 nm using the Sunrise Tecan Spectrophotometer.
The EC50 values were determined from the percent inhibition versus concentration data using a sigmoidal non-linear regression analysis based on four parameters with Tecan Magellan software.

[7] = Cellular cytotoxicity, 4 days, MTS, U937; format: cell-based; settings: human, Table 21, read-out: Average CC50 Values ± Standard Deviation, U937
Experimental: as §2
(§4) Following drug exposure for 4 days, cell viability was measured by MTS staining and CC50 values were determined. Drug concentrations ranged from 0.005 μM to 100 μM.

[8] = tested on: HIV-1 W.T. strains BH10, NL4-3 and IIIB; assay: Drug susceptibility assays, 3 W.T. strains in 5 human cell lines (ranges); format: cell-based
Excerpt: The virus and host-cell dependency of Compound I, Compound III and control drugs was further examined in drug susceptibility assays performed across 3 different subtype B wild-type HIV-1 strains and 5 different cell lines.

[9] = tested on: HIV-1 BH10 wild-type virus; assay: microbe, parasite or virus in culture; format: cell-based
[10] = Cellular cytotoxicity, 4 days, MTS, IM9; format: cell-based; settings: human, Table 21, read-out: Average CC50 Values ± Standard Deviation, IM9
Experimental: as §2, §4

HIV-1 BH10 W.T. = assay: Anti-HIV-1 BH10 W.T. activity in presence of HS or AAG; format: cell-based
[11] = Mean IC50 Values ± Standard Deviation, Table 6, N=4
[12] = Table 20, vs 10% FBS only, listed as Cmpd I

Structure (SMILES): CO[P@](=O)(c1cc(C)cc(/C=C/C#N)c1)c1c(C(N)=O)[nH]c2ccc(Cl)c(F)c12 [Compound I, (2-Carbamoyl-5-chloro-4-fluoro-1H-indol-3-yl)-[3-((E)-2-cyano-vinyl)-5-methyl-phenyl]-(R)-phosphinic acid methyl ester]
- CC50 at 12 days [1]: 25700 ± 3260 nM
- IC50 ([2]; Average IC50 Values, Table 5, preliminary data from a single experiment): 118000 nM
- IC50 [2, 11]: 118000 nM
- EC50 [3]: 0.7 ± 0.3 nM
- CC50 [4]: 23500 to 31500 nM
- IC50 ([5]; Average IC50 Values ± Standard Deviation, Table 5): ≥ 422000 nM
- IC50 [5, 11]: 422000 ± 150000 nM
- Average IC50 Values ± Standard Deviation, DNA Pol Beta ([5]; Table 5): did not reach an IC50
- EC50 ([6]; Cell Protection Assay tables, unit inferred, read-out: EC50, BH10): 0.28 ± 0.072 nM
- EC50 ([6]; Table 8, CPE readout, read-out: Average EC50 Values ± Standard Deviation, W.T.): 0.3 ± 0.1 nM
- EC50 ([6]; range over the three agents, read-out: mean EC50 values, WT BH10 virus, CPE assay): 0.1 to 0.7 nM
- Fold Change, W.T. ([6]; Table 9, CPE): 1 fold
- CC50 at 4 days [7]: 26500 ± 500 nM
- EC50 ([8]; Human immunodeficiency virus 1, read-out: EC50 range, 3 HIV-1 viral strains in 5 host human cell lines): 0.5 to 2 nM
- EC50 ([8]; Human immunodeficiency virus 1, read-out: Mean Activity Range, Table 17, over all virus/host combinations): 0.5 nM
- EC50 ([9]; Human immunodeficiency virus 1, MT4, 96 h, read-out: mean EC50, wild-type BH10 virus in MT-4 cells, p24 ELISA, 4 day): 1 nM
- EC50 ([9]; Human immunodeficiency virus 1, MT4, read-out: Average EC50 Values ± Standard Deviation, host MT-4, virus BH10, Table 17): 1 ± 0.4 nM
- EC50 ([9]; Human immunodeficiency virus 1, MT4, read-out: EC50, BH10, Example 16 comparative tables, unit inferred, several lines per compound): 1 ± 0.5 nM
- Fold Change, W.T. ([9]; Table 7, EC50 mutant / EC50 wild-type): 1 fold
- EC50 ([9]; read-out: EC50, BH10, Example 16 comparative tables, unit inferred, several lines per compound): 0.7 nM
- EC50 ([9]; read-out: mean EC50, wild-type BH10 virus in MT-4 cells, p24 ELISA, 4 day): 1.2 nM
- CC50 at 4 days [10]: 32900 ± 2600 nM
- EC50 (HIV-1 BH10 W.T.; Human immunodeficiency virus 1, read-out: Average EC50 Values ± Standard Deviation, 10% Fetal Bovine Serum): 1.1 ± 0.4 nM
- EC50 (HIV-1 BH10 W.T.; Human immunodeficiency virus 1, read-out: Average EC50 Values ± Standard Deviation, 10% Fetal Bovine Serum + AAG): 2.9 ± 1.2 nM
- EC50 (HIV-1 BH10 W.T.; Human immunodeficiency virus 1, read-out: Average EC50 Values ± Standard Deviation, 45% Human Serum): 14.6 ± 6.3 nM
- EC50 (HIV-1 BH10 W.T.; Human immunodeficiency virus 1, read-out: Average EC50 Values ± Standard Deviation, 45% Human Serum + AAG): 19 ± 1.7 nM
- EC50 (HIV-1 BH10 W.T.; Human immunodeficiency virus 1, read-out: mean EC50 values, 45% HS+AAG): 19 nM
- Fold Change, 10% Fetal Bovine Serum (HIV-1 BH10 W.T.; Table 20): 1 fold
- Fold Change, 45% Human Serum (HIV-1 BH10 W.T.; Table 20, vs 10% FBS only): 15.9 ± 11.1 fold
- Fold Change, 45% Human Serum + AAG (HIV-1 BH10 W.T.; Table 20, vs 10% FBS only): 24.8 fold and 19.5 fold
- Fold Change, 10% Fetal Bovine Serum + AAG (HIV-1 BH10 W.T.; [12]): 2.7 ± 0.7 fold
- Fold Change, 45% Human Serum + AAG (HIV-1 BH10 W.T.; [12]): 19.5 ± 7.6 fold
